Experimental data reported in article PMC8672774, “Discovery of cell active macrocyclic peptides with on-target inhibition of KRAS signaling” (Chemical Science, 2021).

What was measured:
in vitro = details: human
rat mast cells = experiment: Ex vivo rat mast cell degranulation and histamine release assay; details: for rMCD histamine release threshold: lowest concentration at which histamine release was observed, rat peritoneal mast cells, 30 min; for activation of mast cell degranulation (histamine release), in words: ex vivo, rat mast cells
Experimental: The reported rat mast cell degranulation (rMCD) value in Table 4 is a threshold for the lowest concentration at which a two-fold change in histamine release was observed.
In Vitro Rat M ast Cell Degranulation and H istamine Release Ass ess m ent: Peritoneal lavage was isolated
from Wister- Han rats as described in literature. In brief, animals were anesthetized with xylene followed
by an injection of about 10 mL of Tyrode buffer (12 mM NaHCO3, 127 mM NaCl, 5 mM KCl, 0.5 mM
NaH2PO4, 1 mM MgCl2, 5 mM Glucose and 10 mM HEPES, pH 7.4) into the peritoneal cavity. After a
gentle abdomen massage, peritoneal lavage was collected and centrifuged at 350 x g for 5 minutes. Cell
pellets were resuspended in Tyrode buffer with 10% heat inactivated rat serum to reach a final
Freshly isolated rat peritoneal cells were aliquoted to a 96 well tissue-
culture plate (100 µL per well).
peptides for 30 minutes at 37°C. After incubation, the plate was centrifuged at 350 x g for 2 minutes at
room temperature. Supernatant were collected and histamine concentration was measured by ELISA
(Neogen, Lansing, MI) following vendor’s instructions. Amount of histamine in the supernatant was
presented as ng/mL. A detection of histamine release was defined as the histamine concentration in
from 10 vehicle-control treated samples from the same animal). The lowest concentration that a

CC[C@H](C)[C@@H]1NC(=O)[C@H](Cc2ccc(O)cc2)NC(=O)[C@H](CC(C)C)NC(=O)[C@]2(C)CCCN2C(=O)[C@H](NC(=O)[C@H](CCCNC(=N)N)NC(=O)[C@H](CCCNC(=N)N)NC(=O)[C@H](CCCCN=[N+]=[N-])NC(C)=O)CSCSC[C@@H](C(=O)N[C@@H](CCCNC(=N)N)C(=O)N[C@@H](CCCNC(=N)N)C(N)=O)NC(=O)[C@H](C(C)C)NC(=O)[C@@H]2CCCN2C(=O)[C@H](CC(=O)O)NC(=O)[C@H](Cc2ccc(O)cc2)NC(=O)[C@H](CO)NC1=O [Compound 14]
half-life at 1 µM (in vitro; HeLa cell homogenate): 142 min

CC[C@H](C)[C@@H]1NC(=O)[C@H](Cc2ccc(O)cc2)NC(=O)[C@](C)(CC(C)C)NC(=O)[C@@H]2CCCN2C(=O)[C@H](NC(=O)[C@H](CCCNC(=N)N)NC(=O)[C@H](CCCNC(=N)N)NC(=O)[C@H](CCCCN=[N+]=[N-])NC(C)=O)CSCSC[C@@H](C(=O)N[C@@H](CCCNC(=N)N)C(=O)N[C@@H](CCCNC(=N)N)C(N)=O)NC(=O)[C@H](C(C)C)NC(=O)[C@@H]2CCCN2C(=O)[C@H](CC(=O)O)NC(=O)[C@H](Cc2ccc(O)cc2)NC(=O)[C@H](CO)NC1=O [Compound 15]
half-life at 1 µM (in vitro; HeLa cell homogenate): 114 min

CC[C@H](C)[C@@H]1NC(=O)[C@](C)(Cc2ccccc2)NC(=O)[C@H](CC(C)C)NC(=O)[C@@H]2CCCN2C(=O)[C@H](NC(=O)[C@H](CCCNC(=N)N)NC(=O)[C@H](CCCNC(=N)N)NC(=O)[C@H](CCCCN=[N+]=[N-])NC(C)=O)CSCSC[C@@H](C(=O)N[C@@H](CCCNC(=N)N)C(=O)N[C@@H](CCCNC(=N)N)C(N)=O)NC(=O)[C@H](C(C)C)NC(=O)[C@@H]2CCCN2C(=O)[C@H](CC(=O)O)NC(=O)[C@H](Cc2ccc(O)cc2)NC(=O)[C@H](CO)NC1=O [Compound 16]
half-life at 1 µM (in vitro; HeLa cell homogenate): > 373 min

CC[C@H](C)[C@@H]1NC(=O)[C@H](Cc2ccc(O)cc2)NC(=O)[C@H](CC(C)C)NC(=O)[C@@H]2CCCN2C(=O)[C@H](NC(=O)[C@H](CCCNC(=N)N)NC(=O)[C@H](CCCNC(=N)N)NC(=O)[C@H](CCCCN=[N+]=[N-])NC(C)=O)CSCSC[C@@H](C(=O)N[C@@H](CCCNC(=N)N)C(=O)N[C@@H](CCCNC(=N)N)C(N)=O)NC(=O)[C@H](C(C)C)NC(=O)[C@@H]2CCCN2C(=O)[C@H](CC(=O)O)NC(=O)[C@H](Cc2ccc(O)cc2)NC(=O)[C@](C)(CO)NC1=O [Compound 17]
half-life at 1 µM (in vitro; HeLa cell homogenate): 154 min

CC[C@H](C)[C@@H]1NC(=O)[C@H](Cc2ccc(O)cc2)NC(=O)[C@H](CC(C)C)NC(=O)[C@@H]2CCCN2C(=O)[C@H](NC(=O)[C@H](CCCNC(=N)N)NC(=O)[C@H](CCCNC(=N)N)NC(=O)[C@H](CCCCN=[N+]=[N-])NC(C)=O)CSCSC[C@@H](C(=O)N[C@@H](CCCNC(=N)N)C(=O)N[C@@H](CCCNC(=N)N)C(N)=O)NC(=O)[C@H](C(C)C)NC(=O)[C@@H]2CCCN2C(=O)[C@H](CC(=O)O)NC(=O)[C@](C)(Cc2ccc(O)cc2)NC(=O)[C@H](CO)NC1=O [Compound 18]
half-life at 1 µM (in vitro; HeLa cell homogenate): 71 min

CC[C@H](C)[C@@H]1NC(=O)[C@H](Cc2ccc(O)cc2)NC(=O)[C@H](CC(C)C)NC(=O)[C@@H]2CCCN2C(=O)[C@H](NC(=O)[C@H](CCCNC(=N)N)NC(=O)[C@H](CCCNC(=N)N)NC(=O)[C@H](CCCCN=[N+]=[N-])NC(C)=O)CSCSC[C@@H](C(=O)N[C@@H](CCCNC(=N)N)C(=O)N[C@@H](CCCNC(=N)N)C(N)=O)NC(=O)[C@H](C(C)C)NC(=O)[C@@H]2CCCN2C(=O)[C@](C)(CC(=O)O)NC(=O)[C@H](Cc2ccc(O)cc2)NC(=O)[C@H](CO)NC1=O [Compound 19]
half-life at 1 µM (in vitro; HeLa cell homogenate): 41 min

CC[C@H](C)[C@@H]1NC(=O)[C@H](Cc2ccc(O)cc2)NC(=O)[C@H](CC(C)C)NC(=O)[C@@H]2CCCN2C(=O)[C@H](NC(=O)[C@H](CCCNC(=N)N)NC(=O)[C@H](CCCNC(=N)N)NC(=O)[C@H](CCCCN=[N+]=[N-])NC(C)=O)CSCSC[C@@H](C(=O)N[C@@H](CCCNC(=N)N)C(=O)N[C@@H](CCCNC(=N)N)C(N)=O)NC(=O)[C@H](C(C)C)NC(=O)[C@]2(C)CCCN2C(=O)[C@H](CC(=O)O)NC(=O)[C@H](Cc2ccc(O)cc2)NC(=O)[C@H](CO)NC1=O [Compound 20]
half-life at 1 µM (in vitro; HeLa cell homogenate): 134 min

CC[C@H](C)[C@@H]1NC(=O)[C@H](Cc2ccc(O)cc2)NC(=O)[C@H](CC(C)C)NC(=O)[C@@H]2CCCN2C(=O)[C@H](NC(=O)[C@H](CCCNC(=N)N)NC(=O)[C@H](CCCNC(=N)N)NC(=O)[C@H](CCCCN=[N+]=[N-])NC(C)=O)CSCSC[C@@](C)(C(=O)N[C@@H](CCCNC(=N)N)C(=O)N[C@@H](CCCNC(=N)N)C(N)=O)NC(=O)[C@H](C(C)C)NC(=O)[C@@H]2CCCN2C(=O)[C@H](CC(=O)O)NC(=O)[C@H](Cc2ccc(O)cc2)NC(=O)[C@H](CO)NC1=O [Compound 22]
half-life at 1 µM (in vitro; HeLa cell homogenate): 120 min

CC[C@H](C)[C@@H]1NC(=O)[C@H](Cc2ccc(O)cc2)NC(=O)[C@H](CC(C)C)NC(=O)[C@@H]2CCCN2C(=O)[C@H](NC(=O)[C@H](CCCNC(=N)N)NC(=O)[C@H](CCCNC(=N)N)NC(=O)[C@H](CCCNC(=N)N)NC(=O)[C@H](CCCCN=[N+]=[N-])NC(C)=O)CSCSC[C@@H](C(=O)N[C@@H](CCCNC(=N)N)C(=O)N[C@@H](CCCNC(=N)N)C(=O)N[C@@H](CCCNC(=N)N)C(N)=O)NC(=O)[C@H](C(C)C)NC(=O)[C@@H]2CCCN2C(=O)[C@H](CC(=O)O)NC(=O)[C@H](Cc2ccc(O)cc2)NC(=O)[C@H](CO)NC1=O [Compound 23]
rMCD histamine release threshold (rat mast cells): ≥0.14 µM

CC[C@H](C)[C@@H]1NC(=O)[C@H](Cc2ccc(O)cc2)NC(=O)[C@H](CC(C)C)NC(=O)[C@@H]2CCCN2C(=O)[C@H](NC(=O)[C@H](CCCCN=[N+]=[N-])NC(C)=O)CSCSC[C@@H](C(=O)N[C@@H](CCCNC(=N)N)C(N)=O)NC(=O)[C@H](C(C)C)NC(=O)[C@@H]2CCCN2C(=O)[C@H](CC(=O)O)NC(=O)[C@H](Cc2ccc(O)cc2)NC(=O)[C@H](CO)NC1=O [Compound 24]
activation of mast cell degranulation (histamine release), in words (rat mast cells): free from this potential liability | rMCD histamine release threshold (rat mast cells): >100 µM

CC[C@H](C)[C@@H]1NC(=O)[C@H](Cc2ccc(O)cc2)NC(=O)[C@H](CC(C)C)NC(=O)[C@@H]2CCCN2C(=O)[C@H](NC(=O)[C@H](CCCCN=[N+]=[N-])NC(C)=O)CSCSC[C@@H](C(N)=O)NC(=O)[C@H](C(C)C)NC(=O)[C@@H]2CCCN2C(=O)[C@H](CC(=O)O)NC(=O)[C@H](Cc2ccc(O)cc2)NC(=O)[C@H](CO)NC1=O [Compound 25]
activation of mast cell degranulation (histamine release), in words (rat mast cells): free from this potential liability | rMCD histamine release threshold (rat mast cells): >100 µM

CC[C@H](C)[C@@H]1NC(=O)[C@H](Cc2ccc(O)cc2)NC(=O)[C@H](CC(C)C)NC(=O)[C@@H]2CCCN2C(=O)[C@H](NC(=O)[C@H](CCCNC(=N)N)NC(=O)[C@H](CCCNC(=N)N)NC(=O)[C@H](CCCCN=[N+]=[N-])NC(C)=O)CSCSC[C@@H](C(=O)N[C@@H](CCCNC(=N)N)C(=O)N[C@@H](CCCNC(=N)N)C(N)=O)NC(=O)[C@H](C(C)C)NC(=O)[C@@H]2CCCN2C(=O)[C@H](CC(=O)O)NC(=O)[C@H](Cc2ccc(O)cc2)NC(=O)[C@H](CO)NC1=O [MP-1687]
half-life at 1 µM (in vitro; tissue homogenate): 37 min | rMCD histamine release threshold (rat mast cells): ≥3.7 µM

CC[C@H](C)[C@@H]1NC(=O)[C@H](Cc2ccc(O)cc2)NC(=O)[C@H](CC(C)C)NC(=O)[C@@H]2CCCN2C(=O)[C@H](NC(=O)[C@H](CCCNC(=N)N)NC(=O)[C@H](CCCCN=[N+]=[N-])NC(C)=O)CSCSC[C@@H](C(=O)N[C@@H](CCCNC(=N)N)C(N)=O)NC(=O)[C@H](C(C)C)NC(=O)[C@@H]2CCCN2C(=O)[C@H](CC(=O)O)NC(=O)[C@H](Cc2ccc(O)cc2)NC(=O)[C@H](CO)NC1=O [MP-9903]
activation of mast cell degranulation (histamine release), in words (rat mast cells): free from this potential liability | rMCD histamine release threshold (rat mast cells): >100 µM
